In ChEMBL document CHEMBL1201862, “PubChem BioAssay data set” (2004):
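Following 48 hours of exposure in 96-well plates, responses at five concentrations were used to interpolate endpoints linearly. GI50 = concentration required for 50% inhibition of growth.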 Activity calls are given as the source filed them. No stated cut-off is given here; in the data, active = GI50 up to about 1.1 µM and inactive = higher.

Legend:
Experiment in all cases: NCI-60 cell line screen, 48 h
MDA-MB-231 = system: MDA-MB-231
HOP-92 = system: HOP-92
RPMI-8226 = system: RPMI-8226
RXF 393 = system: RXF 393
SNB-19 = system: SNB-19
EKVX = system: EKVX
SNB-75 = system: SNB-75
ACHN = system: ACHN
T47D = system: T47D
SN12C = system: SN12C
MDA-MB-435 = system: MDA-MB-435
SW-620 = system: SW-620
KM12 = system: KM12
UACC-257 = system: UACC-257
NCI-H522 = system: NCI-H522
MCF7 = system: MCF7
UO-31 = system: UO-31
MOLT-4 = system: MOLT-4
SF-295 = system: SF-295
CAKI-1 = system: CAKI-1

| SMILES | GI50 (MDA-MB-231) | GI50 (HOP-92) | GI50 (RPMI-8226) | GI50 (RXF 393) | GI50 (SNB-19) | GI50 (EKVX) | GI50 (SNB-75) | GI50 (ACHN) | GI50 (T47D) | GI50 (SN12C) | GI50 (MDA-MB-435) | GI50 (SW-620) | GI50 (KM12) | GI50 (UACC-257) | GI50 (NCI-H522) | GI50 (MCF7) | GI50 (UO-31) | GI50 (MOLT-4) | GI50 (SF-295) | GI50 (CAKI-1) |
| --- | --- | --- | --- | --- | --- | --- | --- | --- | --- | --- | --- | --- | --- | --- | --- | --- | --- | --- | --- | --- |
| COc1ccc(/C=C2\CCC(CN(C)C)C2=O)cc1OC (stereo not given) | 2.35 µM (inactive) | 5.69 µM (inactive) | 1.28 µM (inactive) | 1.94 µM (inactive) | 16.5 µM (inactive) | 16.1 µM (inactive) | 8.49 µM (inactive) | 7 µM (inactive) | 5.41 µM (inactive) | 3.43 µM (inactive) | 5.55 µM (inactive) | 1.82 µM (inactive) | 2.37 µM (inactive) | 5.41 µM (inactive) | 1.95 µM (inactive) | 2.56 µM (inactive) | 11.5 µM (inactive) | 1.29 µM (inactive) | 15.1 µM (inactive) | 4.8 µM (inactive) |
| CCCCc1ccc(Nc2nc(Cl)c3ncn(COCCOC(C)=O)c3n2)cc1 | 15.3 µM (inactive) | 2.06 µM (inactive) | 18.2 µM (inactive) | 16.9 µM (inactive) | 19.9 µM (inactive) | 6.19 µM (inactive) | 24.5 µM (inactive) | 17.5 µM (inactive) | 22.8 µM (inactive) | 21.8 µM (inactive) | 18.5 µM (inactive) | 21.1 µM (inactive) | 20.4 µM (inactive) | 19.8 µM (inactive) | 13.6 µM (inactive) | 27.4 µM (inactive) | 16 µM (inactive) | 21.2 µM (inactive) | 17.4 µM (inactive) | 1.89 µM (inactive) |
| Cc1ccc(S(=O)(=O)NNC(=O)c2cc(C)c(C)cc2N)cc1 | > 100 µM (inactive) | > 100 µM (inactive) | > 100 µM (inactive) | > 100 µM (inactive) | > 100 µM (inactive) | > 100 µM (inactive) | > 100 µM (inactive) | > 100 µM (inactive) | 96.6 µM (inactive) | > 100 µM (inactive) | > 100 µM (inactive) | > 100 µM (inactive) | > 100 µM (inactive) | > 100 µM (inactive) | 47 µM (inactive) | > 100 µM (inactive) | > 100 µM (inactive) | 66.2 µM (inactive) | > 100 µM (inactive) | > 100 µM (inactive) |
| CCOC(=O)c1c(OCC)[nH]c(=O)c(C(c2cccs2)c2c(O)c(C(=O)OCC)c(OCC)[nH]c2=O)c1O | 11.1 µM (inactive) | 9.42 µM (inactive) | 12.1 µM (inactive) | 1.7 µM (inactive) | 11.4 µM (inactive) | 11.5 µM (inactive) | 0.082 µM (active) | 12.8 µM (inactive) | 0.0989 µM (active) | 15.4 µM (inactive) | 14.5 µM (inactive) | 12.1 µM (inactive) | 17.9 µM (inactive) | 11.7 µM (inactive) | 13.8 µM (inactive) | 14.9 µM (inactive) | 10.9 µM (inactive) | 6.47 µM (inactive) | 12 µM (inactive) | 18 µM (inactive) |
| O=[N+]([O-])C[C@@]12O[C@]3(O)C4C5CC(C6C5C3C61)C42 (stereo not given in full) | > 100 µM (inactive) | > 100 µM (inactive) | > 100 µM (inactive) | > 100 µM (inactive) | > 100 µM (inactive) | > 100 µM (inactive) | > 100 µM (inactive) | > 100 µM (inactive) | > 100 µM (inactive) | > 100 µM (inactive) | > 100 µM (inactive) | > 100 µM (inactive) | > 100 µM (inactive) | > 100 µM (inactive) | > 100 µM (inactive) | > 100 µM (inactive) | > 100 µM (inactive) | > 100 µM (inactive) | > 100 µM (inactive) | > 100 µM (inactive) |
| O=C(CSCC(=O)N/N=C\c1ccccc1F)N/N=C\c1ccccc1F | > 100 µM (inactive) | > 100 µM (inactive) | 36.3 µM (inactive) | > 100 µM (inactive) | > 100 µM (inactive) | > 100 µM (inactive) | > 100 µM (inactive) | > 100 µM (inactive) | 77.6 µM (inactive) | > 100 µM (inactive) | 68.5 µM (inactive) | > 100 µM (inactive) | 92.9 µM (inactive) | > 100 µM (inactive) | 64.6 µM (inactive) | > 100 µM (inactive) | > 100 µM (inactive) | 63.2 µM (inactive) | 41.7 µM (inactive) | > 100 µM (inactive) |
| C/C=C1/CN2CCC34C5=CC(=O)C(c6cc7c(cc6OC)N(C)C6=C(C(=O)OC)CC8(CC)CCCN9CCC67C98)=CC5=NC23CCC1C4C(=O)OC (stereo not given) | 10.2 µM (inactive) | 7.85 µM (inactive) | 4.04 µM (inactive) | 10.3 µM (inactive) | 16 µM (inactive) | 13.8 µM (inactive) | 8.11 µM (inactive) | 15.6 µM (inactive) | 15.1 µM (inactive) | 14.5 µM (inactive) | 13 µM (inactive) | 8.73 µM (inactive) | 16.4 µM (inactive) | 14 µM (inactive) | 11.1 µM (inactive) | 9.14 µM (inactive) | 12.1 µM (inactive) | 2.45 µM (inactive) | 17.7 µM (inactive) | 9.51 µM (inactive) |
